Columns and labels:
[1] = Small-animal PET of PC-3 tumor-bearing mice; details: mouse, in vivo, iv, total radioactivity; for tissue to tissue ratio at 2 h: T/NT ratio
Method: (a) PET scans and image analysis were performed using a micro-PET R4 rodent model scanner (Siemens Medical Solutions) as reported by Li et al., J. Nucl. Med. (2007) 48: 1162-1171 and Wu et al., J Nucl. Med. (2005) 46: 1707-1718, both of which are incorporated herein by reference in their entireties). […] Five-minute static PET images were then acquired at 0.5, 1, and 2 h after injection. The images were reconstructed by a 2-dimensional ordered-subsets expectation maximum (OSEM) algorithm. No attenuation or scatter correction was applied. […] The 5-min static PET scans were then acquired at 1 hr after injection. For each small-animal PET scan, regions of interest (ROIs) were drawn over the tumor, normal tissue, and major organs by using vendor software (ASI Pro 5.2.4.0) on decay-corrected whole-body coronal images. The average radioactivity concentration (accumulation) within a tumor or an organ was obtained from mean pixel values within the multiple ROI volume, which were converted to counts/mL/min using a conversion factor. Assuming a tissue density of 1 g/mL, the ROIs were converted to counts/g/min, and then divided by the administered activity to obtain an imaging ROI-derived percentage injected dose per gram of tissue (% ID/g).
For dynamic PET, 30-min scans (1×30 s, 4×1 min, 1×1.5 min, 4×2 min, 5×3 min; total 15 frames) were started 1 min after injection, and two 5-min static PET images were also acquired at 1 h and 2 h after injection. […] For each small-animal PET scan, regions of interest (ROIs) were drawn over the tumor, normal tissue, and major organs using vendor software ASI Pro 5.2.4.0 on decay-corrected whole-body coronal images. The maximum radioactivity concentrations (accumulation) within a tumor or an organ were obtained from mean pixel values within the multiple ROI volume, and were converted to megabecquerels per milliliter per minute using a conversion factor. These values were then divided by the administered activity to obtain (assuming a tissue density of 1 g/ml) an image ROI-derived percent injected dose per gram (% ID/g).
The images were reconstructed using a 2-dimensional ordered-subsets expectation maximum algorithm without attenuation or scatter correction.
For each small-animal PET scan, regions of interest were drawn over each tumor, over normal tissue, and over major organs using vendor software (ASI Pro, version 5.2.4.0) on decay-corrected whole-body coronal images. The maximum radioactivity concentration (accumulation) within a tumor or an organ was obtained from the mean pixel values within the multiple-region-of-interest volume, which were converted to MBq/mL/min using a conversion factor. Assuming a tissue density of 1 g/mL, the regions of interest were converted to MBq/g/min and then divided by the administered activity to obtain an imaging region-of-interest-derived percentage injected dose (% ID)/g.

[2] = Small-animal PET of MDA-MB-435 tumor-bearing mice; details: female, athymic nude, mouse, in vivo, iv, total radioactivity, MDA-MB-435 tumor uptake
PC-3 tumor cells = experiment: Cell uptake assay on PC-3 tumor cells; assay type: cell-based, human; details: PC-3 cells; for cell uptake: 37° C.
Method: In the cell uptake experiment, PC-3 cells were seeded into 12-well plates at a density of 5×10^5 cells per well for overnight incubation. Cells were rinsed 3 times with phosphate-buffered saline (PBS), followed by the addition of ^18F-FB-RGD, ^18F-FB-BBN, or ^18F-BBN-RGD to the cultured wells in triplicate (about 2 μCi/well). […] The cell lysate was collected in measurement tubes for counting. The cell uptake was normalized in terms of added radioactivity.
The cell uptake studies were performed as we have previously described with some modifications (Chen et al., Mol Imaging Biol. (2004) […]; Cai et al., (2006) J. Nuc. Med. 47: 1172-1180, incorporated herein by reference in their entireties). Briefly, PC-3 cells were seeded into 12-well plates at a density of 5×10^5 cells per well and incubated (about 18 kBq/well) with ^68Ga-labeled tracers at 37° C. for 15, 30, 60, and 120 min. Tumor cells were then washed three times with chilled PBS and harvested by trypsinization with 0.25% trypsin/0.02% EDTA (Invitrogen). The cell suspensions were collected and measured in a y counter (Packard, Meriden, Conn.). The cell uptake was expressed as the percent added dose (% AD) after decay correction. Experiments were performed twice with triplicate wells. For efflux studies, ^68Ga-labeled tracers (about 18 kBq/well) were first incubated with PC-3 cells in 12-well plates for 1 h at 37° C. to allow internalization. Then cells were washed twice with PBS, and incubated with cell culture medium for 15, 30, and 60 min. After washing three times with PBS, cells were harvested by trypsinization with 0.25% trypsin/0.02% EDTA. The cell suspensions were collected and measured in a γ counter. Experiments were performed twice with triplicate wells. Data are expressed as percent added dose after decay correction.

[3] = MicroPET of T47D tumor-bearing mice; assay type: in vivo; details: female, nude, mouse, T47D tumor, iv, total radioactivity, orthotopic model
Source text: The MDA-MB-231, MDA-MB468, BT474, BT-20, T47D, MCF-7 and MDA-MB435 human breast cancer cell lines were all obtained from the American Type Culture Collection (ATCC) and maintained under standard conditions according to ATCC. The MDA-MB435 tumor model was established by orthotopic injections of 5×10^6 cells into the right mammary fat pad of female athymic nude mice. For T47D tumor model establishment, the female nude mice were first subcutaneously implanted with 60-day release 17β-estradiol pellets (Innovative Research of America, Sarasota, Fla.) in the left neck. One day after the estradiol implantation, 1×10^7 T47D cells were orthotopically injected into the right mammary fat pad of the nude mice. The mice were subjected to microPET studies when the tumor volume reached 100-300 mm^3 (2-3 weeks for MDA-MB-435, and 4-5 wk for T47D).
Quantification of tumor and major organ activity accumulation in the microPET scans was realized by measuring the regions of interest (ROIs) that encompassing the entire organ on the coronal images.

T47D tumor cells = experiment: Cell uptake assay on T47D tumor cells; assay type: cell-based, human; details: 120 min, 37° C., n=3
Method: The cells suspensions were collected and measured in a y counter (Packard, Meriden, Conn.). The cell uptake was expressed as the percent added dose (% AD) after decay correction. Experiments were performed twice with triplicate wells.

[4] = male, athymic nude, 3.7 MBq, PC-3 tumor uptake
[5] = male, athymic nude, 3.7 MBq, PC-3 tumor uptake, dynamic scan
[6] = male, athymic nude, 3.7 MBq, PC-3 tumor uptake, static scan after dynamic scan
[7] = male, athymic nude, 5.5 MBq, Tumor uptake

## CSCC[C@H](NC(=O)[C@H](CC(C)C)NC(=O)[C@H](Cc1c[nH]cn1)NC(=O)CNC(=O)[C@@H](NC(=O)[C@H](C)NC(=O)[C@H](Cc1c[nH]c2ccccc12)NC(=O)[C@H](CCC(N)=O)NC(=O)CCCCCNC(=O)CC[C@H](NC(=O)COCCOCCOCCNC(=O)c1ccc([18F])cc1)C(=O)NCCCC[C@@H]1NC(=O)[C@@H](Cc2ccc(O)cc2)NC(=O)[C@H](CC(=O)O)NC(=O)CNC(=O)[C@H](CCCNC(=N)N)NC1=O)C(C)C)C(N)=O [^18F-FB-PEG3-RGD-BBN]
[1]; male, athymic nude, 10 mg/kg, PC-3 tumor uptake with RGD blocking, 1 h, 3.7 MBq, co-injected c(RGDyK) 10 mg/kg
  tissue uptake at 1 h: 2.19 ± 0.97 %ID/g
[1]; [4]
  tissue uptake at 0.5 h: 6.35 ± 2.52 %ID/g
  tissue uptake at 1 h: 4.41 ± 0.71 %ID/g
  tissue uptake at 2 h: 2.47 ± 0.81 %ID/g
[1]; [5]
  tissue uptake at 5 min: 3.54 %ID/g
  tissue uptake at 0.25 h: 4.86 %ID/g
  tissue uptake at 0.5 h: 5.64 %ID/g
[1]; [6]
  tissue uptake at 1 h: 4.08 %ID/g
  tissue uptake at 2 h: 2.88 %ID/g
[1]; male, athymic nude, 3.7 MBq, liver uptake (highest)
  tissue uptake at 0.5 h: < 2 %ID/g
[1]; male, athymic nude, PC-3 tumor uptake with BBN blocking, 1 h, 3.7 MBq, co-injected Aca-BBN(7-14) 15 mg/kg
  tissue uptake at 1 h: 1.58 ± 0.52 %ID/g
[1]; male, athymic nude, PC-3 tumor uptake with RGD+BBN blocking, 1 h, 3.7 MBq, co-injected RGD 10 mg/kg and BBN 15 mg/kg
  tissue uptake at 1 h: 0.43 ± 0.08 %ID/g
[1]; tumor/blood
  tissue to tissue ratio at 2 h: 8.1 ± 1.14
[1]; tumor/kidneys
  tissue to tissue ratio at 2 h: 1.44 ± 0.05
[1]; tumor/liver
  tissue to tissue ratio at 2 h: 6.43 ± 0.81
[1]; tumor/muscle
  tissue to tissue ratio at 2 h: 10.5 ± 0.75
[2]
  tissue uptake at 0.5 h: 2.72 ± 0.8 %ID/g
  tissue uptake at 1 h: 1.59 ± 0.65 %ID/g
  tissue uptake at 2 h: 0.84 ± 0.22 %ID/g
PC-3 tumor cells; 4° C., 60 min, blocking with Aca-BBN(7-14)
  inhibition of cell uptake by BBN: 83.67±2.09%
PC-3 tumor cells; 4° C., 60 min, blocking with both peptides
  inhibition of cell uptake by RGD+BBN: 91.97±0.14%
PC-3 tumor cells; 4° C., 60 min, blocking with c(RGDyK)
  inhibition of cell uptake by RGD: 17.55±8.89%
PC-3 tumor cells; 15 min
  cell uptake: 4.72±0.37%
PC-3 tumor cells; 30 min
  cell uptake: 5.51±0.11%
PC-3 tumor cells; 60 min
  cell uptake: 5.87±0.15%
PC-3 tumor cells; 120 min
  cell uptake: 6.65±0.34%
PC-3 tumor cells; within 30 min of incubation, plateaus afterwards
  internalization (uptake at 37° C. minus uptake at 4° C.): about 3.5%
[3]; 0.5 h
  tissue uptake at 0.5 h: 2.96 ± 0.53 %ID/g
[3]; 1 h
  tissue uptake at 1 h: 1.81 ± 0.34 %ID/g
[3]; 2 h
  tissue uptake at 2 h: 0.91 ± 0.12 %ID/g
T47D tumor cells
  T47D cell uptake value: 4.25±0.13 % AD

## CSCC[C@H](NC(=O)[C@H](CC(C)C)NC(=O)[C@H](Cc1c[nH]cn1)NC(=O)CNC(=O)[C@@H](NC(=O)[C@H](C)NC(=O)[C@H](Cc1c[nH]c2ccccc12)NC(=O)[C@H](CCC(N)=O)NC(=O)CCCCCNC(=O)CC[C@H](NC(=S)Nc1ccc(C[C@H]2CN(CC(=O)O)CCN(CC(=O)O)CCN2CC(=O)O)cc1)C(=O)NCCCC[C@@H]1NC(=O)[C@@H](Cc2ccc(O)cc2)NC(=O)[C@H](CC(=O)O)NC(=O)CNC(=O)[C@H](CCCNC(=N)N)NC1=O)C(C)C)C(N)=O [^64Cu-NOTA-RGD-BBN, metal not drawn]
[1]; male, athymic nude, 5.5 MBq, Blood uptake
  tissue uptake at 0.5 h: < 1 %ID/g
[1]; male, athymic nude, 5.5 MBq, PC-3 tumor uptake with BBN blocking
  tissue uptake at 1 h: 0.76 ± 0.36 %ID/g
[1]; male, athymic nude, 5.5 MBq, PC-3 tumor uptake with RGD and BBN blocking
  tissue uptake at 1 h: 0.54 ± 0.41 %ID/g
[1]; male, athymic nude, 5.5 MBq, PC-3 tumor uptake with RGD blocking
  tissue uptake at 1 h: 1.64 ± 0.77 %ID/g
[1]; [7]
  tissue uptake at 0.5 h: 3.06 ± 0.11 %ID/g
  tissue uptake at 1 h: 2.78 ± 0.56 %ID/g
  tissue uptake at 4 h: 2.21 ± 0.49 %ID/g
  tissue uptake at 20 h: 2.04 ± 0.35 %ID/g
  tissue uptake at 24 h: 2.04 ± 0.35 %ID/g
[1]; male, athymic nude, 5.5 MBq, liver uptake
  tissue uptake: 3.5 %ID/g
[1]; 5.5 MBq, Blood uptake
  tissue uptake at 1 h: 0.66 ± 0.15 %ID/g
  tissue uptake at 4 h: 0.49 ± 0.07 %ID/g
  tissue uptake at 20 h: 0.5 ± 0.15 %ID/g
[1]; 5.5 MBq, Kidney uptake
  tissue uptake at 0.5 h: 4.09 ± 0.81 %ID/g
  tissue uptake at 1 h: 3.06 ± 0.25 %ID/g
  tissue uptake at 4 h: 2.3 ± 0.41 %ID/g
  tissue uptake at 20 h: 1.87 ± 0.41 %ID/g
[1]; 5.5 MBq, Liver uptake
  tissue uptake at 0.5 h: 3.46 ± 0.26 %ID/g
  tissue uptake at 1 h: 2.8 ± 1.15 %ID/g
  tissue uptake at 4 h: 1.83 ± 0.68 %ID/g
  tissue uptake at 20 h: 0.98 ± 0.4 %ID/g
[2]
  tissue uptake at 4 h: 1.79 ± 0.2 %ID/g
  tissue uptake at 24 h: 1.29 ± 0.09 %ID/g
PC-3 tumor cells; 120 min
  cell uptake value: 2.94 % added dose
[3]; 4 h
  tissue uptake at 4 h: 1.94 ± 0.22 %ID/g
[3]; 24 h
  tissue uptake at 24 h: 1.38 ± 0.16 %ID/g
T47D tumor cells
  T47D cell uptake value: 5.30±0.53 % AD

— US20100015058A1, “RADIOLABELED BBN-RGD HETERODIMERS FOR CANCER TARGETING” (STANFORD UNIVERSITY, priority 2008, published 2010)
